# Assays:
# [1] = Electrometric titration (pKa); format: physicochemical; details: electrometric titration in 66% dimethylformamide in water; for possibly additional pKa's: stated as possible
# Description: Antibiotic A41030 factor A is a white, crystalline solid.
# Solubility in solvents = format: physicochemical; details: qualitative
# Description: As many as seven antibiotic factors are recovered from the fermentation and are obtained as a mixture, the A41030 complex. It will be recognized that the ratio of the factors in the A41030 complex will vary, depending upon the fermentation conditions used. The individual factors A, B, C, D, E, F, and G are separated and isolated as individual compounds, as hereinafter described.
# Propionibacterium acnes [2] = assay: MIC against Propionibacterium acnes strains, 24-hour agar-dilution; format: cell-based
# Description: Antibiotic A41030 factors A, B and C have been tested and found to be active against a genus of anaerobic bacteria identified as Propionibacterium acnes.
# Clostridium difficile [3] = assay: MIC anaerobic bacteria, agar-dilution; format: cell-based; details: Clostridium difficile 2994; agar-dilution (Table 9)
# Clostridium perfringens = format: cell-based; details: Clostridium perfringens 81; agar-dilution
# Clostridium septicum = assay: MIC anaerobic bacteria, agar-dilution; format: cell-based; details: Clostridium septicum 1128
# [4] = system: Peptococcus asaccharolyticus; assay: MIC anaerobic bacteria, agar-dilution; format: cell-based; details: Peptococcus asaccharolyticus 1302
# Peptococcus prevoti = assay: MIC anaerobic bacteria, agar-dilution; format: cell-based; details: Peptococcus prevoti 1281
# [5] = system: Peptostreptococcus anaerobius; assay: MIC anaerobic bacteria, agar-dilution; format: cell-based; details: Peptostreptococcus anaerobius 1428
# Propionibacterium acnes [6] = assay: MIC anaerobic bacteria, agar-dilution; format: cell-based; details: Propionibacterium acnes 79; agar-dilution (Table 9)
# Bacteroides fragilis = assay: MIC anaerobic bacteria, agar-dilution; format: cell-based
# [7] = system: Bacteroides thetaiotaomicron; assay: MIC anaerobic bacteria, agar-dilution; format: cell-based; details: Bacteroides thetaiotaomicron 1438
# [8] = system: Bacteroides melaninogenicus; assay: MIC anaerobic bacteria, agar-dilution; format: cell-based
# Bacteroides vulgatis = assay: MIC anaerobic bacteria, agar-dilution; format: cell-based; details: Bacteroides vulgatis 1211
# Bacteroides corrodens = assay: MIC anaerobic bacteria, agar-dilution; format: cell-based; details: Bacteroides corrodens 1874
# Fusobacterium symbiosum = assay: MIC anaerobic bacteria, agar-dilution; format: cell-based; details: Fusobacterium symbiosum 1470
# [9] = system: Fusobacterium necrophorum; assay: MIC anaerobic bacteria, agar-dilution; format: cell-based; details: Fusobacterium necrophorum 6054A
# Clostridium difficile [10] = assay: MIC against Clostridium difficile strains, agar-dilution; format: cell-based
# Description: The A41030 antibiotic factors A, B, C, D, E, F, and G, are also active against a number of strains of Clostridium difficile, as determined by the agardilution method.
# [11] = system: Staphylococcus epidermidis; assay: MIC aerobic bacteria, standard agar-dilution assay; format: cell-based
# Streptococcus pyogenes = assay: MIC aerobic bacteria, standard agar-dilution assay; format: cell-based; details: Streptococcus pyogenes C203, 24 hours
# Streptococcus pneumoniae = assay: MIC aerobic bacteria, standard agar-dilution assay; format: cell-based; details: Streptococcus pneumoniae Park I, 24 hours
# [12] = system: Streptococcus sp. Group D; assay: MIC aerobic bacteria, standard agar-dilution assay; format: cell-based
# Haemophilus influenzae = assay: MIC aerobic bacteria, standard agar-dilution assay; format: cell-based
# S. pyogenes = assay: In vivo oral activity against S. pyogenes in mice
# Eubacterium aerofaciens = assay: MIC anaerobic bacteria, agar-dilution; format: cell-based; details: Eubacterium aerofaciens 1235
# [13] = system: Peptostreptococcus intermedius; assay: MIC anaerobic bacteria, agar-dilution; format: cell-based; details: Peptostreptococcus intermedius 1264
# Staphylococcus aureus = assay: MIC aerobic bacteria, standard agar-dilution assay; format: cell-based; details: Staphylococcus aureus S13E; agar-dilution, 24 hours
# Escherichia coli = assay: MIC aerobic bacteria, standard agar-dilution assay; format: cell-based; details: Escherichia coli TEM, 24 hours
# [14] = Bacteroides melaninogenicus 2736
# [15] = Staphylococcus epidermidis EPI1, 24 hours
# [16] = Streptococcus sp. Group D 9960, 24 hours
# [17] = Streptococcus sp. Group D X66, 24 hours
substance,measurement,setting,value
A41030 factor C,"pKa, second titratable group",[1],~7.1
same,possibly additional pKa's,[1],> 10
same,solubility (solvents),Solubility in solvents,soluble in the same solvents as factor A
same,MIC,Propionibacterium acnes [2]; P. acnes strain 104,0.25 µg/mL
same,MIC,Propionibacterium acnes [2]; P. acnes strain 5170,≤ 0.03 µg/mL
same,MIC,Propionibacterium acnes [2]; P. acnes strain 5176,≤ 0.03 µg/mL
same,MIC,Propionibacterium acnes [2]; P. acnes strain 5187,0.06 µg/mL
same,MIC,Propionibacterium acnes [2]; P. acnes strain 5197,≤ 0.03 µg/mL
same,MIC,Propionibacterium acnes [2]; P. acnes strain 5227,0.06 µg/mL
same,MIC,Propionibacterium acnes [2]; P. acnes strain 5228,1.0 µg/mL
same,MIC,Propionibacterium acnes [2]; P. acnes strain 5229,0.5 µg/mL
same,MIC,Propionibacterium acnes [2]; P. acnes strain 5246,0.06 µg/mL
same,MIC,Propionibacterium acnes [2]; P. acnes strain 5292,0.06 µg/mL
same,MIC,Clostridium difficile [3],16 µg/mL
same,MIC,Clostridium perfringens,1.0 µg/mL
same,MIC,Clostridium septicum,8 µg/mL
same,MIC,[4],≤ 0.25 µg/mL
same,MIC,Peptococcus prevoti,≤ 0.25 µg/mL
same,MIC,[5],≤ 0.25 µg/mL
same,MIC,Propionibacterium acnes [6],≤ 0.25 µg/mL
same,MIC,Bacteroides fragilis; Bacteroides fragilis 1877,16 µg/mL
same,MIC,Bacteroides fragilis; Bacteroides fragilis 1936B,32 µg/mL
same,MIC,[7],64 µg/mL
same,MIC,[8]; [14],4 µg/mL
same,MIC,Bacteroides vulgatis,32 µg/mL
same,MIC,Bacteroides corrodens,32 µg/mL
same,MIC,Fusobacterium symbiosum,1.0 µg/mL
same,MIC,[9],16 µg/mL
same,MIC,Clostridium difficile [10]; Clostridium difficile 78,1.0 µg/mL
same,MIC,Clostridium difficile [10]; Clostridium difficile 107B,1.0 µg/mL
same,MIC,Clostridium difficile [10]; Clostridium difficile 111F,2 µg/mL
same,MIC,Clostridium difficile [10]; Clostridium difficile 1153,2 µg/mL
same,MIC,Clostridium difficile [10]; Clostridium difficile 2634,2 µg/mL
same,MIC,Clostridium difficile [10]; Clostridium difficile 3424-5B,1.0 µg/mL
same,MIC,Clostridium difficile [10]; Clostridium difficile 3816,2 µg/mL
same,MIC,Clostridium difficile [10]; Clostridium difficile 3950D,2 µg/mL
same,MIC,Clostridium difficile [10]; Clostridium difficile 6890,2 µg/mL
same,MIC,Clostridium difficile [10]; Clostridium difficile 8484,1.0 µg/mL
same,MIC,Clostridium difficile [10]; Clostridium difficile A-194,2 µg/mL
same,MIC,Clostridium difficile [10]; Clostridium difficile A-195,1.0 µg/mL
same,MIC,Clostridium difficile [10]; Clostridium difficile A-196,2 µg/mL
same,MIC,Clostridium difficile [10]; Clostridium difficile A-279,2 µg/mL
same,MIC,Clostridium difficile [10]; Clostridium difficile A-280,1.0 µg/mL
same,MIC,Clostridium difficile [10]; Clostridium difficile A-281,2 µg/mL
same,MIC,Clostridium difficile [10]; Clostridium difficile WAL-2112,2 µg/mL
same,MIC,Clostridium difficile [10]; Clostridium difficile WAL-3657,2 µg/mL
same,MIC,Clostridium difficile [10]; Clostridium difficile WAL-4268,1.0 µg/mL
same,MIC,[11]; [15],0.5 µg/mL
same,MIC,Streptococcus pyogenes,1 µg/mL
same,MIC,Streptococcus pneumoniae,1 µg/mL
same,MIC,[12]; [16],4 µg/mL
same,MIC,[12]; [17],2 µg/mL
same,MIC,"Haemophilus influenzae; Haemophilus influenzae 251, 24 hours",4 µg/mL
same,MIC,"Haemophilus influenzae; Haemophilus influenzae Brun, 24 hours",16 µg/mL
same,in vivo oral activity,S. pyogenes,> 300 mg./kg.×2
A41030 factor D,possibly additional pKa's,[1],> 10
same,solubility (solvents),Solubility in solvents,soluble in the same solvents as factor A
same,MIC,Clostridium difficile [3],0.5 µg/mL
same,MIC,Clostridium perfringens,0.5 µg/mL
same,MIC,Clostridium septicum,0.25 µg/mL
same,MIC,Eubacterium aerofaciens,0.5 µg/mL
same,MIC,Peptococcus prevoti,0.25 µg/mL
same,MIC,[5],0.5 µg/mL
same,MIC,[13],1.0 µg/mL
same,MIC,Propionibacterium acnes [6],0.25 µg/mL
same,MIC,Bacteroides fragilis; Bacteroides fragilis 111,32 µg/mL
same,MIC,Bacteroides fragilis; Bacteroides fragilis 1877,32 µg/mL
same,MIC,Bacteroides fragilis; Bacteroides fragilis 1936B,32 µg/mL
same,MIC,[7],32 µg/mL
same,MIC,[8]; Bacteroides melaninogenicus 1856/28,> 64 µg/mL
same,MIC,[8]; [14],0.5 µg/mL
same,MIC,Bacteroides vulgatis,32 µg/mL
same,MIC,Bacteroides corrodens,32 µg/mL
same,MIC,Fusobacterium symbiosum,0.5 µg/mL
same,MIC,Clostridium difficile [10]; Clostridium difficile 78,≤ 0.25 µg/mL
same,MIC,Clostridium difficile [10]; Clostridium difficile 107B,≤ 0.25 µg/mL
same,MIC,Clostridium difficile [10]; Clostridium difficile 111F,≤ 0.25 µg/mL
same,MIC,Clostridium difficile [10]; Clostridium difficile 1153,1.0 µg/mL
same,MIC,Clostridium difficile [10]; Clostridium difficile 2634,0.5 µg/mL
same,MIC,Clostridium difficile [10]; Clostridium difficile 3424-5B,0.5 µg/mL
same,MIC,Clostridium difficile [10]; Clostridium difficile 3816,0.5 µg/mL
same,MIC,Clostridium difficile [10]; Clostridium difficile 3950D,0.5 µg/mL
same,MIC,Clostridium difficile [10]; Clostridium difficile 6890,0.5 µg/mL
same,MIC,Clostridium difficile [10]; Clostridium difficile 8484,≤ 0.25 µg/mL
same,MIC,Clostridium difficile [10]; Clostridium difficile A-194,≤ 0.25 µg/mL
same,MIC,Clostridium difficile [10]; Clostridium difficile A-195,≤ 0.25 µg/mL
same,MIC,Clostridium difficile [10]; Clostridium difficile A-196,0.5 µg/mL
same,MIC,Clostridium difficile [10]; Clostridium difficile A-279,≤ 0.25 µg/mL
same,MIC,Clostridium difficile [10]; Clostridium difficile A-280,≤ 0.25 µg/mL
same,MIC,Clostridium difficile [10]; Clostridium difficile A-281,0.5 µg/mL
same,MIC,Clostridium difficile [10]; Clostridium difficile WAL-2112,≤ 0.25 µg/mL
same,MIC,Clostridium difficile [10]; Clostridium difficile WAL-3657,≤ 0.25 µg/mL
same,MIC,Clostridium difficile [10]; Clostridium difficile WAL-4268,≤ 0.25 µg/mL
same,MIC,Staphylococcus aureus,0.25 µg/mL
same,MIC,[11]; [15],0.25 µg/mL
same,MIC,"[11]; Staphylococcus epidermidis EPI2, 24 hours",1 µg/mL
same,MIC,Streptococcus pyogenes,0.5 µg/mL
same,MIC,Streptococcus pneumoniae,0.5 µg/mL
same,MIC,[12]; [16],1 µg/mL
same,MIC,[12]; [17],1 µg/mL
same,MIC,"Haemophilus influenzae; Haemophilus influenzae 76, 24 hours",8 µg/mL
same,MIC,"Haemophilus influenzae; Haemophilus influenzae C.L., 24 hours",8 µg/mL
same,MIC,Escherichia coli,64 µg/mL

# From patent publication US4695545A, “Culture and process for producing A41030 antibiotics” (Eli Lilly and Company, priority 1984, dated 1987)
